Results published in US10993923B2, “Method for ameliorating fibrosis using 1-[4-chloro-3-(trifluoromethyl)phenyl]-3-[3-(4-cyanophenoxy)phenyl]urea” (priority 2016, dated 2021).

What was measured:
[1] = tested on: BDL-induced cholestasis fibrosis in mice; assay: Bile duct ligation (BDL) fibrosis mice prevention model; type: in vivo, Balb/C mice; conditions: 10 mg/kg from day 1 until sacrifice on day 14 of BDL; FIG. 13A, 13B
Description: In the bile duct ligation (BDL) mouse model, the common bile duct of Balb/C mice was double-ligated and excised. Mice were fed daily with vehicle or 1-[4-chloro-3-(trifluoromethyl)phenyl]-3-[3-(4-cyanophenoxy)phenyl]urea on day 1 or day 8 until they were sacrificed on day 14.
(§1) The mice liver samples were stored in 10% formaldehyde, dehydrated with gradient alcohol, embedded in paraffin blocks, sectioned to a thickness of 3 μm, placed on glass slides, and stained with Picrosirius Red Stain kit (ScyTek, USA), following the manufacturer's instructions. The severity of liver fibrosis was graded according to the Ishak fibrosis score. Quantitative collagen-positive area (qCPA) was determined by densitometry via ImageJ software. Hepatic hydroxyproline concentrations were measured by the hydroxyproline assay kit (Biovision, USA), following the manufacturer's instructions Immunohistochemistry was performed by the Leica BOND-MAX automatic chromatograph (Leica Biosystems, Germany), following the manufacturer's instructions.

[2] = target: T1, SHP-1 (Homo sapiens, UniProt P29350); assay: SHP-1 phosphatase activity, LX2 cells; type: cell-based
T1 construct: LX2 cell protein extract were reacted with anti-SHP-1 antibody in immunoprecipitation buffer overnight; endogenous in cells; host or cells: LX2 cells
Protocol: After drug treatment, mouse fibroblasts (NIH3T3 cell line), human lung epithelial cells (A549 cell line) or LX2 cell protein extract were reacted with anti-SHP-1 antibody in immunoprecipitation buffer overnight. Protein A/G Sepharose Fast Flow Beads (GE) were added to each sample, followed by a rotation reaction at 4° C. for 3 hours. The 96EnzChek® tyrosine phosphatase assay kit (R-22067) was used for SHP-1 activity assay (Invitrogen, USA).
Plasmids encoding the human wild-type SHP-1 and SHP-1 mutant, in which the N—SH2 domain was truncated (dN1) or one aspartic acid at site 61 was changed into an alanine residue (D61A) were cloned into the pCMV6-entry vector with myc-tag. These mutants were confirmed through DNA sequencing. Smart-pool siRNA, including the control (D-001810-10), and SHP-1 (PTPN6, L-009778-00-0005) were obtained from Dharmacon Inc. (Chicago, Ill., USA). For transient expression, SHP-1 plasmids or siRNA (final concentration, 100 nM) with the Lipofectamine 2000 transfection reagent were pretransfected into the LX2 cells for 24 h, following the manufacturer's instructions.

[3] = tested on: p-STAT3 in mouse fibroblasts (NIH3T3 cell line); assay: Western blot of p-STAT3 in NIH3T3 fibroblasts; type: cell-based; conditions: FIG. 7B
Protocol: Murine NIH3T3 fibroblasts and human lung epithelial cells (A549 cells) were purchased from the Bioresource Collection and Research Center (Hsinchu, Taiwan). Cells were cultured in Dulbecco's modified eagle medium (DMEM) containing 10% fetal bovine serum (FBS), 100 μg/mL penicillin, 100 μg/mL streptomycin. Cells were cultured at 37° C. in a humidified atmosphere of 5% CO2 and passaged every 4 to 5 days at 1:4 ratios.
(§2) Whole-cell extracts were obtained via RIPA buffer (Millipore, USA) and protein concentrations were quantified via a BCA protein assay kit (Thermo Fisher Scientific, USA). 20 or 25 μg of protein was added to various percentages of SDS-sodium dodecyl sulfate-acrylamide gel and blotted onto a polyvinylidene fluoride (PVDF) membrane. The membrane was then reacted with a primary antibody; after extensive washing, the membrane was reacted with a […] containing a second antibody. Proteins were detected by Immobilon Western Chemiluminescent HRP substrate (Millipore, USA) or ECL detection system (UVP Corporation, USA).
Antibodies for immunoblotting techniques such as anti-E-cadherin, anti-Fibronectin, anti-N-cadherin were purchased from Abcam (UK). […]

[4] = tested on: CCl4-induced hepatic fibrosis in mice; assay: CCl4-induced hepatic fibrosis mice prevention model; type: in vivo, male C57BL/6J mice; conditions: concurrently administered with CCl4 for 4 weeks; FIG. 11A-11E
Description: In male C57BL/6J mice, liver fibrosis was induced by carbon tetrachloride (CCl4). The mice were given peritoneal injection of carbon tetrachloride for 4 or 8 weeks every two weeks.
as §1

[5] = target: T2, SHP-1 (Rattus norvegicus, UniProt P81718); assay: SHP-1 phosphatase activity, HSC-T6 cells; type: cell-based; conditions: sorafenib 5 μM, compound 2.5 or 5 μM, FIG. 16C
T2 construct: endogenous in cells; host or cells: HSC-T6 cells

[6] = tested on: hepatic stellate cells (HSC); assay: Western blot in hepatic stellate cells (cell line not given); type: cell-based
Protocol: Rat immortal hepatic stellate cell line HSC-T6 and LX2 human hepatic stellate cell line were provided by Professor Scott Friedman of Mount Sinai Hospital in New York, USA. The primary mouse HSCs were obtained via the way: after intubating the hepatic portal vein of the mouse, the cells were perfused with Leffert's and ethylene glycol bis-aminoethyl ether tetraacetic acid (EGTA) buffer in situ, and then collagenase was injected to digest the liver tissue, and then the primary mouse HSCs were isolated by Histodnz gradient. HSC-T6 cells were cultured in Waymouth medium; LX2 cells and primary mouse HSCs were cultured in Dulbecco's Modified Eagle Medium (DMEM) containing 10% fetal bovine serum (FBS), 100 μg/mL penicillin, 100 μg/mL streptomycin, and 2 mM L-glutamine HSC-T6 cells, LX2 cells and primary mouse HSCs were cultured in a humidified incubator containing 5% carbon dioxide at 37° C. After adding the FBS, the resting HSC is started. For in vitro studies, various concentrations of 1-[4-chloro-3-(trifluoromethyl)phenyl]-3-[3-(4-cyanophenoxy)phenyl]urea and sorafenib were dissolved in dimethyl sulfoxide and subsequently added to cells, which were in 5% FBS, for a predetermined period of time.
as §2, with “Corporation, USA). […]” for “Corporation, USA).”

T1 sequence (P29350 whole entry): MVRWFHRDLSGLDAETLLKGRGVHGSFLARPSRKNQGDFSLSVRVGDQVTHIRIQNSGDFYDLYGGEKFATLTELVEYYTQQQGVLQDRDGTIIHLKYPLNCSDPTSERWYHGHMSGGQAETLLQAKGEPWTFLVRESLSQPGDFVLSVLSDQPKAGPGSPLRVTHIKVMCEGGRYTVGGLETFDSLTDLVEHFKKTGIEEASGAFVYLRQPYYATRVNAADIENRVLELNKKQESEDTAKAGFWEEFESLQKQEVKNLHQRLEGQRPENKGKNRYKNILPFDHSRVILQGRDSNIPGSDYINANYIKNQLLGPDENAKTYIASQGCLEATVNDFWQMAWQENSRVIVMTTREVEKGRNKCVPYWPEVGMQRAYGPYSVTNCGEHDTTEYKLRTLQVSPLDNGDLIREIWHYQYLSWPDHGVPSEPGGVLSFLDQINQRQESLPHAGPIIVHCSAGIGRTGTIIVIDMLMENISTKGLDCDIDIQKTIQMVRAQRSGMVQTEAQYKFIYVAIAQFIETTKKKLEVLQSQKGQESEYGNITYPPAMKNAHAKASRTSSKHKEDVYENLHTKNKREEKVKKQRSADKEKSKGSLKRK
T2 sequence (P81718 whole entry): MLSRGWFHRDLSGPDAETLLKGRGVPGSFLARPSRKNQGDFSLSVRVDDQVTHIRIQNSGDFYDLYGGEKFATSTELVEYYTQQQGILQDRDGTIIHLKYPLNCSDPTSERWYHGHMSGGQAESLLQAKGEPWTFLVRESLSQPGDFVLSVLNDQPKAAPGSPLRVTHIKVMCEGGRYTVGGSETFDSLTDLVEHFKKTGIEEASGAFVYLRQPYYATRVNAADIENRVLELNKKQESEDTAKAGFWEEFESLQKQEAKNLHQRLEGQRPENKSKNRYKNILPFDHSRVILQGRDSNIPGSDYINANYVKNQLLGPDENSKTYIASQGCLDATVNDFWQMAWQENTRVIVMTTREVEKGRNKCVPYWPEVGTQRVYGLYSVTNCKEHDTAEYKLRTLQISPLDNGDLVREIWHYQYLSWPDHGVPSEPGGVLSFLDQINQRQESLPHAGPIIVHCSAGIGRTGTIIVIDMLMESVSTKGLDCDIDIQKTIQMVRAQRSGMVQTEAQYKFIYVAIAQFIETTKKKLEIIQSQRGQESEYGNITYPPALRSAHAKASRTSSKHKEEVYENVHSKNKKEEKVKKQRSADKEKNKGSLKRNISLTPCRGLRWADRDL

N#Cc1ccc(Oc2cccc(NC(=O)Nc3ccc(Cl)c(C(F)(F)F)c3)c2)cc1 [1-[4-chloro-3-(trifluoromethyl)phenyl]-3-[3-(4-cyanophenoxy)phenyl]urea] was tested, and the “quantitative collagen-positive area (qCPA)” value [1] was “significantly reduced”, the “SHP-1 activity in the ectopic expression of the vector and wild-type SHP-1” value ([2]; FIG. 17C) was “significantly increased the SHP-1 activity” and the SHP-1 activity ([2]; LX2, sorafenib 5 μM, compound 2.5 or 5 μM, FIG. 16C) was “significantly increased the SHP-1 activity at a lower concentration”. For the same compound, the “enhancing SHP-1 activity, compared with sorafenib” value ([2]; test system not stated at the place, text refers to FIG. 2A) was “better than the known anti-fibrosis drug sorafenib”, the “expression level of p-STAT3” value [3] was “reduced” and the “hepatic fibrosis (Picrosirius Red staining, qCPA, Ishak fibrosis score, α-SMA expression, hydroxyproline concentration)” value [4] was “significant fibrosis regression”. For the same compound, the SHP-1 activity [5] was “significantly increased the SHP-1 activity at a lower concentration”, the “IL-6-induced p-STAT3 upregulation” value ([6]; 10 μM for 4 hours, then IL-6 100 ng/mL 30 minutes, FIG. 15B) was “suppressed” and the “cleavage of poly(ADP-ribose) polymerase (PARP) fragments” value ([6]; Western blotting, FIG. 14C) was “dose-dependently increased”. The “p-Akt and p-STAT3 after administering AG1295, a specific PDGFR inhibitor” value ([6]; independent of the PDGFR signaling, FIG. 15D) was “still downregulated”.
